Measured values published in patent publication US20150374784A1, “COMPOSITIONS AND METHODS FOR REDUCING GERM CELL DEATH” (Los Angeles Biomedical Research Institute at Harbor-UCLA …, priority 2014, published 2015).
Several values for one entry are separate records, joined by “and”; a condition that tells them apart may be missing. Equal entries are not always repeated.

How the values were obtained:
STAT3 = STAT3 phosphorylation in testis by western blot; type: in vivo, mouse; conditions: testis homogenates; for STAT3 phosphorylation (phosphorylated STAT3/STAT3) compared with control: treatment alone
Procedure: (§1) For the HN analog experiments, male mice were divided into seven groups (n=4-5 per group) and received one of the following treatments and sacrificed after 24 hours: 1) vehicle (control); 2) a single intra-peritoneal (IP) injection of HN peptide [HN, 40 mg/Kg body weight (BW)]; 3) a single IP injection of CP (CP, 200 mg/Kg BW); 4) IP injection of CP and HN (CP+HN); 5) a single IP injection of each HN analog (HNG 5 mg/Kg BW, HNG-F6A 5 mg/Kg BW, HN-S7A 40 mg/Kg BW, HN-C8P 40 mg/Kg BW, or HN-L12A 40 mg/Kg BW); 6) IP injection of CP and each HN analog (CP+HNG, HNG-F6A, HN-S7A, HN-C8P, or HN-L12A); and 7) IP injection of CP+HN+HN analog (HN-S7A, HN-C8P, or HN-L12A; to assess whether the analogs has enhancing or inhibitory effect on HN).
(§2) To facilitate testicular fixation by using a whole-body perfusion technique, all animals were injected with heparin (130 IU/100 g BW, IP) 15 min before a lethal injection of sodium pentobarbital (200 mg/kg BW, IP) (Lue Y H, et al., 1999). One testis was removed and weighed after perfusion with saline. Portions of testicular parenchyma were snap frozen in liquid nitrogen, and stored at −80 C for Western blotting. The other testis was fixed by vascular perfusion with Bouin's solution, and processed with routine paraffin embedding for in situ detection of apoptosis.
Western blotting was performed as described previously (Jia Y, et al., 2009). In brief, proteins were denatured and separated by sodium dodecyl sulfate-polyacrylamide gel electrophoresis (SDS-PAGE) system (Invitrogen, Carlsbad, Calif.). After transferring, the Immuno-blot PVDF Membrane (Bio-Rad, Hercules, Calif.) was blocked for 1 h and then probed using anti-STAT3 or anti-pSer727 STAT3 (Cell signaling Technology, Inc., Beverly, Mass.) overnight at 4 C with constant shaking. After washing, membrane was then incubated with an anti-mouse (for STAT3 antibody, Santa Cruz Biotechnology, Santa Cruz, Calif.) or anti-rabbit (for pSer727 STAT3 antibody, Amersham Biosciences, Piscataway, N.J.) IgG-HRP secondary antibody. All antibodies were diluted in blocking buffer. For immunodetection, membrane was incubated with enhanced chemiluminescence solutions per the manufacturer's specifications (Amersham Biosciences, Piscataway, N.J.), and exposed to Hyperfilm ECL (Denville Scientific Inc., Metuchen, N.J.).

male germ cells [1] = test system: male germ cells
male germ cells [2] = type: in vivo, mouse; conditions: for germ cell apoptosis in testicular cross sections (TUNEL) compared to control: 24 hours after IP injection
Procedure: Young adult mice (12-13 weeks) were randomly divided into 4 groups with 4 or 5 mice per group and received an IP injection: control (Con) (saline), HN (40 mg/Kg BW), CP (200 mg/Kg BW), and the combination of CP+HN. These experiments were repeated four times. In the CP+HN group, mice received an injection of HN followed by an injection of CP about 15 minutes later. Twenty-four hours after injections animals were sacrificed using 5% pentobarbital (200 mg/kg BW) IP injection. Blood was collected and one testis was removed, weighed and frozen in liquid nitrogen. The mouse was next perfused with saline and then subsequently perfuse-fixed with Bouin's solution as previously described and apoptosis was assessed by TUNEL assay (Lue, et al., 2009).
For detection of apoptosis in testicular sections, the paraffin embedded testis tissue was cut into 5 micron sections and stained with the TdT-mediated dUTP nick-end labeling assay (TUNEL Apoptosis Detection Kit, Millipore, Billerica, Mass.) to detect apoptosis of germ cells in the testis (Lue, et al., 2009). Testicular sections assayed by TUNEL were examined under a light microscope and the apoptotic germ cells were blindly and manually counted. The seminiferous tubules in the testis section under the microscope were grouped as stages IX-IV (early-late stages of spermatogenesis) and V-VIII (middle stages of spermatogenesis). Germ cell apoptosis was quantified as the number of seminiferous tubules containing apoptotic spermatogonia, spermatoctyes, round spermatids and spermatozoa per 100 seminiferous tubules (Drumond, et al., 2011).
Statistical analyses of the majority of the data was performed using the Sigma Plot 12 program (Jandel, San Rafael, Calif.). The data were analyzed by using t-tests and one-way ANOVA followed by Student-Newman-Keuls Method. P-values of less than 0.05 (P<0.05) were considered significant. In in vivo experiments when the testicular sections were assessed for apoptosis, a mixed model used the percentage of tubules with apoptosis as the dependent variable. Two different stages (Early or Late Vs Middle) and four treatment groups (Control, HN CP, CP+HN) as well as the interaction term were included in the model as independent variables. Persons who did the experiment were considered as a random effect to accommodate a potential heterogeneous variance in the model. Least Square Means and their differences were computed and tested using the Tukey's adjustment for multiple pair-wise comparisons. A residual analysis was done to check for the model assumptions. All the data analysis was carried out using SAS 9.3 (Cary, N.C. USA).

male germ cells [3] = type: in vivo, mouse
Procedure: as §1, §2
Detection of apoptotic cells was performed in Bouin's′-fixed, paraffin-embedded testicular sections by the terminal deoxynucleotidyl transferase (TdT)-mediated deoxy-UTP nick end labeling (TUNEL) technique (Sinha Hikim A P, et al., 1997) using an ApopTag-peroxidase kit (Chemicon International, Inc., Temecula, Calif.). Enumeration of the Sertoli cell nuclei with distinct nucleoli and apoptotic germ cell population was quantified at stages I-IV (early stages), stages VII-VIII (middle stages) and stages XI-XII (late stages) of the seminiferous epithelial cycle using an Olympus BH-2 microscope (New Hyde Park, N.Y.). Stages were identified according to the criteria proposed by Russell et al for paraffin sections (Russell L, 1977). The rate of germ cell apoptosis (apoptotic index, AI) was expressed as the number of apoptotic germ cells per Sertoli cells (Sinha Hikim A P, et al., 1997).

Leydig cells = assay: Leydig cell depletion and testosterone levels in rats; type: in vivo, rat; conditions: for intratesticular testosterone levels / serum testosterone levels: rats, EDS 80 mg/kg, CP 70 mg/kg BW, HN 40 mg/kg BW, with or without EDS pre-treatment
[4] = EDS 80 mg/kg IP 3 days before, CP 70 mg/kg BW
[5] = rats not pre-treated with EDS, CP 70 mg/kg BW IP, 12 hours

With `O=P1(N(CCCl)CCCl)NCCCO1` (stereo not shown) [CP, cyclophosphamide monohydrate] as the molecule, how does the “STAT3 phosphorylation (phosphorylated STAT3/STAT3) compared with control” value (STAT3) read?
The value was “suppressed Ser727-phosphorylated STAT3 in testes”.

What about the “CP induced germ cell apoptosis with versus without EDS pre-treatment, early and late stages” value (male germ cells [1]; CP 70 mg/kg BW) of the same molecule?
The value was “significantly lower in EDS pre-treated rats”.

And the “germ cell apoptosis at early (I-VI) and late (IX-XIV) stages, EDS pre-treated rats, compared to control” value (male germ cells [1]; [4])?
Its value is “did not significantly increased germ cell apoptosis”.

And the “germ cell apoptosis in middle (VII-VIII) stages, EDS pre-treated rats” value (male germ cells [1]; [4])?
The value was “did not additively increased germ cell apoptosis caused by EDS treatment”.

What about the “germ cell apoptosis at early (I-VI) and late (IX-XIV) stages compared to control” value (male germ cells [1]; [5]) of the same molecule?
Its value is “significantly increased germ cell apoptosis”.

What about the “germ cell apoptosis in the middle (VII-VIII) stages” value (male germ cells [1]; [5]) of the same molecule?
The value was “did not increase apoptosis in the middle (VII-VIII) stages”.

What about the “germ cell apoptosis in testicular cross sections (TUNEL) compared to control” value (male germ cells [2]; HN 40 mg/Kg, CP 200 mg/Kg) of the same molecule?
Its value is “significantly increased germ cell apoptosis”.

And the “germ cell apoptosis, percentage of tubules with apoptotic cells, early-late stages” value (male germ cells [2]; early-late stages of spermatogenesis, 24 hours, CP 200 mg/Kg, HN 40 mg/Kg)?
The value was “significantly increased germ cell apoptosis”.

And the “germ cell apoptosis, percentage of tubules with apoptotic cells, middle stages” value (male germ cells [2]; middle stages (V-VIII), 24 hours, CP 200 mg/Kg, HN 40 mg/Kg)?
The value was “significant increase in apoptosis”.

What about the “Apoptotic Index (AI), apoptotic germ cells per Sertoli cell, middle stages” value (male germ cells [3]; stages VII-VIII, 24 hours after single IP, CP 200 mg/Kg, HN, HN-S7A 40 mg/Kg, HNG, HNG-F6A 5 mg/Kg, monohydrate) of the same molecule?
The value was 0.25±0.03 and 0.33±0.03.

What about the intratesticular testosterone levels (Leydig cells) of the same molecule?
Its intratesticular testosterone levels is “had no significant effects”.

And the serum testosterone levels (Leydig cells)?
The serum testosterone levels was “had no significant effects”.

For “MAPRGFSCLLLLTSEIDLPVKRRA [HN, 24-amino acid mitochondrial derived peptide]”, which “STAT3 phosphorylation (phosphorylated STAT3/STAT3) compared with control” value (STAT3) is on record?
The value was “did not change STAT3 phosphorylation”.

What about the “CP suppressed STAT3 (Ser727) phosphorylation” value (STAT3; with CP 200 mg/Kg) of the same molecule?
The value was “restored CP-induced Ser 727-phosphorylation of STAT3”.

What about the “germ cell apoptosis at early and late stages in EDS pre-treated rats, addition of HN” value (male germ cells [1]; HN 40 mg/kg BW) of the same molecule?
The value was “did not significantly reduced germ cell apoptosis”.

What about the “CP effects at early and late stages in EDS pre-treated animals, addition of HN” value (male germ cells [1]; HN 40 mg/kg BW + CP + EDS) of the same molecule?
The value was “did not change the CP effects in EDS pre-treated animals”.

And the “EDS-induced apoptosis of germ cells, middle stages” value (male germ cells [1]; HN 40 mg/kg BW IP 3 days after EDS)?
The value was “significantly reduced the EDS-induced apoptosis of germ cells”.

And the “increase in apoptosis in CP+EDS group, middle stages” value (male germ cells [1]; concomitant HN 40 mg/kg BW)?
Its value is “reduced by concomitant HN treatment”.

What about the “apoptosis in CP treated testis, middle (VII-VIII) stages” value (male germ cells [1]; rats not pre-treated with EDS, HN 40 mg/kg BW + CP) of the same molecule?
The value was “had no effect on CP treated testis”.

And the “CP-induced apoptosis at early and late stages” value (male germ cells [1]; rats not pre-treated with EDS, HN 40 mg/kg BW IP + CP 70 mg/kg BW)?
Its value is “significantly reduced CP-induced apoptosis”.

And the “germ cell apoptosis in testicular cross sections (TUNEL) compared to control” value (male germ cells [2]; HN 40 mg/Kg, CP 200 mg/Kg)?
Its value is “had no significant effect on germ cell apoptosis”.

And the “CP-induced germ cell apoptosis” value (male germ cells [2]; HN 40 mg/Kg IP about 15 minutes before CP 200 mg/Kg IP, 24 hours)?
Its value is “attenuated the CP-induced germ cell apoptosis”.

What about the “spontaneous germ cell apoptosis, peptide alone” value (male germ cells [3]; single IP, 24 hours, no CP) of the same molecule?
Its value is “did not change the spontaneous germ cell apoptosis”.

What about the “inhibition of (protection against) CP-induced germ cell apoptosis, early+late stages” value (male germ cells [3]; stages I-IV and XI-XII, HN, HN-C8P 40 mg/kg BW, HNG, HNG-F6A 5 mg/kg BW) of the same molecule?
Its value is ~57% and ~60%.

And the “effect on CP-induced germ cell apoptosis, middle stages” value (male germ cells [3]; stages VII-VIII, 40 mg/kg BW)?
The value was “not in middle stages”.

And the “EDS-induced Leydig cell loss” value (Leydig cells; HN administered 3 days after EDS pre-treatment)?
Its value is “did not reverse the EDS-induced Leydig cell loss”.

And the intratesticular testosterone levels (Leydig cells)?
Its intratesticular testosterone levels is “had no significant effects”.

What about the serum testosterone levels (Leydig cells) of the same molecule?
Its serum testosterone levels is “had no significant effects”.
